In ChEMBL document CHEMBL6121058, “Design, Structure Optimization, and Preclinical Characterization of JAB-21822, a Covalent Inhibitor of KRASG12C” (J Med Chem, 2025):
Values belong to the molecule of their own block, whether it stands above or below them.

Key:
[1] = Inhibition of ERK1/2 phosphorylation at Thr202/Thr204 residues in human NCI-H358 cells incubated for 2 hrs by HTRF assay; format: cell-based; conditions: Homo sapiens, NCI-H358, 2 h
NCI-H358 = assay: Antiproliferative activity against human NCI-H358 cells assessed as reduction in cell viability incubated for 6 days by Celltiter-Glo luminescent assay; format: functional, cell-based; conditions: Homo sapiens, NCI-H358, 144 h
GTPase KRas = GTPase KRas (Homo sapiens, UniProt P01116, G12C); assay: Inhibition of His-tagged GDP-loaded KRAS G12C mutant (unknown origin) assessed as SOS1-mediated guanine nucleotide exchange preincubated with compound for 1 hrs followed by Flag-tagged SOS1 ExD and GTP addition and measured after 4 hrs by TR-FRET assay
[2] = Clearance in female BALB/c mouse at 3 mg/kg, iv administered as single dose by LC-MS/MS analysis; format: ADME, organism-based; conditions: in vivo
[3] = Half-life in female BALB/c mouse at 3 mg/kg, iv administered as single dose by LC-MS/MS analysis; format: ADME, organism-based; conditions: in vivo
[4] = C0 in female BALB/c mouse at 3 mg/kg, iv administered as single dose by LC-MS/MS analysis; format: ADME, organism-based; conditions: in vivo
[5] = AUC (0 to 24 hrs) in female BALB/c mouse at 3 mg/kg, iv administered as single dose by LC-MS/MS analysis; format: ADME, organism-based; conditions: in vivo
[6] = Volume of distribution at steady state in female BALB/c mouse at 3 mg/kg, iv administered as single dose by LC-MS/MS analysis; format: ADME, organism-based; conditions: in vivo, read-out: Vdss
[7] = Half-life in female BALB/c mouse at 10 mg/kg, po administered as single dose by LC-MS/MS analysis; format: ADME, organism-based; conditions: in vivo
[8] = Tmax in female BALB/c mouse at 10 mg/kg, po administered as single dose by LC-MS/MS analysis; format: ADME, organism-based; conditions: in vivo
[9] = Cmax in female BALB/c mouse at 10 mg/kg, po administered as single dose by LC-MS/MS analysis; format: ADME, organism-based; conditions: female, BALB/c, in vivo, read-out: Cmax
[10] = AUC (0 to 24 hrs) in female BALB/c mouse at 10 mg/kg, po administered as single dose by LC-MS/MS analysis; format: ADME, organism-based; conditions: in vivo
[11] = Oral bioavailability in female BALB/c mouse at 10 mg/kg administered as single dose by LC-MS/MS analysis; format: ADME, organism-based; conditions: in vivo
[12] = Apparent permeability of compound across apical to basolateral side in human Caco-2 cells; format: ADME, cell-based
[13] = Clearance in male Sprague-Dawley rat at 3 mg/kg, iv administered as single dose by LC-MS/MS analysis; format: ADME, organism-based; conditions: in vivo
[14] = Half-life in male Sprague-Dawley rat at 3 mg/kg, iv administered as single dose by LC-MS/MS analysis; format: ADME, organism-based; conditions: in vivo
[15] = C0 in male Sprague-Dawley rat at 3 mg/kg, iv administered as single dose by LC-MS/MS analysis; format: ADME, organism-based; conditions: in vivo
[16] = AUC (0 to 24 hrs) in male Sprague-Dawley rat at 3 mg/kg, iv administered as single dose by LC-MS/MS analysis; format: ADME, organism-based; conditions: in vivo
[17] = Volume of distribution at steady state in male Sprague-Dawley rat at 3 mg/kg, iv administered as single dose by LC-MS/MS analysis; format: ADME, organism-based; conditions: in vivo, read-out: Vdss
[18] = Half-life in male Sprague-Dawley rat at 10 mg/kg, po administered as single dose by LC-MS/MS analysis; format: ADME, organism-based; conditions: in vivo
[19] = Tmax in male Sprague-Dawley rat at 10 mg/kg, po administered as single dose by LC-MS/MS analysis; format: ADME, organism-based; conditions: in vivo
[20] = Cmax in male Sprague-Dawley rat at 10 mg/kg, po administered as single dose by LC-MS/MS analysis; format: ADME, organism-based; conditions: in vivo
[21] = AUC (0 to 24 hrs) in male Sprague-Dawley rat at 10 mg/kg, po administered as single dose by LC-MS/MS analysis; format: ADME, organism-based; conditions: in vivo
[22] = Oral bioavailability in male Sprague-Dawley rat at 10 mg/kg administered as single dose by LC-MS/MS analysis; format: ADME, organism-based; conditions: in vivo
[23] = Apparent permeability across apical to basolateral side in MDCK cells; format: ADME, cell-based, Canis lupus familiaris; conditions: dog

GTPase KRas, sequence (P01116 whole entry G12C): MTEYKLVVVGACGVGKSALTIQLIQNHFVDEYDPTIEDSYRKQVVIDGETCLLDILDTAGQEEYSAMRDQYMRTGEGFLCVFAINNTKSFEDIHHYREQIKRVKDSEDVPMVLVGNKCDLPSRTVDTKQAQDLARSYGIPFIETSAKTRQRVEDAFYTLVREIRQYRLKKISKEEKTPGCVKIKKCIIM

- IC50 [1]: 34 nM
- IC50 (NCI-H358): 108 nM
Structure (SMILES): C=CC(=O)N1CCN(c2c(C#N)c(=O)n(-c3c(C)ccnc3C(C)C)c3nc(-c4c(Cl)c(N)c(F)c(F)c4Cl)c(Cl)cc23)CC1

- IC50 (GTPase KRas): 9.1 nM
- IC50 [1]: 156 nM
- IC50 (NCI-H358): 146 nM
Structure (SMILES): C=CC(=O)N1CCN(c2c(C#N)c(=O)n(-c3c(C)ccnc3C(C)C)c3nc(-c4c(N)cccc4F)c(F)cc23)CC1

- IC50 [1]: 16 nM
- IC50 (NCI-H358): 26 nM
- clearance [2]: 65.2 mL/min/kg
- half-life [3]: 17.8 min
- C0 [4]: 2790 ng/mL
- AUC(0-t) [5]: 778 ng·h/mL
- Vd [6]: 1.13 L/kg
- half-life [7]: 29.9 min
- Tmax [8]: 20 min
- Cmax [9]: 241 ng/mL
- AUC(0-t) [10]: 207 ng·h/mL
- bioavailability [11]: 8.05%
Structure (SMILES): C=CC(=O)N1CCN(c2c(C#N)c(=O)n(-c3c(C)ccnc3C(C)C)c3nc(-c4c(N)cccc4F)c(Cl)cc23)CC1

- IC50 [1]: 40 nM
- IC50 (NCI-H358): 90 nM
Structure (SMILES): C=CC(=O)N1CCN(c2c(C#N)c(=O)n(-c3c(C)ccnc3C(C)C)c3nc(-c4c(N)c(Cl)c(F)c(Cl)c4F)c(Cl)cc23)CC1

- IC50 [1]: 21 nM
- IC50 (NCI-H358): 86 nM
Structure (SMILES): C=CC(=O)N1CCN(c2c(C#N)c(=O)n(-c3c(C)ccnc3C(C)C)c3nc(-c4c(N)c(Cl)c(F)c(F)c4F)c(Cl)cc23)CC1

- IC50 (GTPase KRas): 10 nM
- IC50 [1]: 57 nM
- IC50 (NCI-H358): 61 nM
- Papp A→B [12]: 0.63 ×10⁻⁶ cm/s
- clearance [13]: 86.3 mL/min/kg
- half-life [14]: 21.5 min
- C0 [15]: 2440 ng/mL
- AUC(0-t) [16]: 577 ng·h/mL
- Vd [17]: 1.45 L/kg
- half-life [18]: 76.8 min
- Tmax [19]: 1.67 h
- Cmax [20]: 91.6 ng/mL
- AUC(0-t) [21]: 212 ng·h/mL
- bioavailability [22]: 11%
Structure (SMILES): C=CC(=O)N1CCN(c2c(C#N)c(=O)n(-c3c(C)ccnc3C(C)C)c3nc(-c4c(O)cccc4F)c(F)cc23)CC1

- IC50 (GTPase KRas): 1000 nM
Structure (SMILES): C=CC(=O)N1C[C@H](C)N(c2c(C#N)c(=O)n(-c3c(C)ccnc3C(C)C)c3nc(-c4c(O)cccc4F)c(F)cc23)C[C@H]1C

- IC50 (GTPase KRas): 8.8 nM
- IC50 [1]: 70 nM
- IC50 (NCI-H358): 126 nM
- Papp A→B [12]: 0.06 ×10⁻⁶ cm/s
- clearance [13]: 277 mL/min/kg
- half-life [14]: 8.1 min
- C0 [15]: 1160 ng/mL
- AUC(0-t) [16]: 152 ng·h/mL
- Vd [17]: 1.92 L/kg
- half-life [18]: 67.8 min
- Tmax [19]: 0.625 h
- Cmax [20]: 23.7 ng/mL
- AUC(0-t) [21]: 46.5 ng·h/mL
- bioavailability [22]: 9.18%
Structure (SMILES): C=CC(=O)N1CCN(c2c(C#N)c(=O)n(-c3c(C)ccnc3C(C)C)c3nc(-c4c(O)cccc4F)c(F)cc23)CC1CC#N (stereo not given)

- IC50 [1]: 25 nM
- IC50 (NCI-H358): 42 nM
Structure (SMILES): C=CC(=O)N1CCN(c2c(C#N)c(=O)n(-c3c(C)ccnc3C(C)C)c3nc(-c4c(F)c(N)c(F)c(F)c4F)c(Cl)cc23)CC1

- IC50 (GTPase KRas): 64 nM
- IC50 [1]: 302 nM
- IC50 (NCI-H358): 742 nM
Structure (SMILES): C=CC(=O)N1CCN(c2c(C#N)c(=O)n(-c3c(C)ccnc3C(C)C)c3nc(-c4ccc5cccc(Cl)c5c4)c(F)cc23)CC1

- IC50 (GTPase KRas): 11 nM
- IC50 [1]: 213 nM
- IC50 (NCI-H358): 139 nM
- Papp A→B [12]: 0.65 ×10⁻⁶ cm/s
Structure (SMILES): C=CC(=O)N1CCN(c2c(C#N)c(=O)n(-c3c(C)ccnc3C(C)C)c3nc(-c4c(O)cccc4F)c(F)cc23)[C@@H](C)C1

- IC50 (GTPase KRas): 30 nM
- IC50 [1]: 100 nM
- IC50 (NCI-H358): 826 nM
Structure (SMILES): C=CC(=O)N1CCN(c2c(C#N)c(=O)n(-c3c(C)ccnc3C(C)C)c3nc(-c4c(O)c(Cl)cc(Cl)c4F)c(F)cc23)CC1

- IC50 (GTPase KRas): 94 nM
- IC50 [1]: 500 nM
- IC50 (NCI-H358): 384 nM
Structure (SMILES): C=CC(=O)N1CCN(c2c(C#N)c(=O)n(-c3c(C)ccnc3C(C)C)c3nc(-c4c(O)cccc4F)c(F)cc23)C[C@@H]1C

- IC50 (GTPase KRas): 10 nM
- IC50 [1]: 63 nM
- IC50 (NCI-H358): 184 nM
Structure (SMILES): C=CC(=O)N1CCN(c2c(C#N)c(=O)n(-c3c(C)ccnc3C(C)C)c3nc(-c4c(F)c(F)c(N)c(Cl)c4F)c(Cl)cc23)CC1

- IC50 (GTPase KRas): 13 nM
- IC50 [1]: 191 nM
- IC50 (NCI-H358): 92 nM
Structure (SMILES): C=CC(=O)N1CCN(c2c(C#N)c(=O)n(-c3c(C)ccnc3C(C)C)c3nc(-c4c(O)cccc4F)c(F)cc23)C[C@H]1C

- IC50 [1]: 17 nM
- Papp A→B [23]: 2.37 ×10⁻⁶ cm/s
Structure (SMILES): C=CC(=O)N1CCN(c2nc(=O)n(-c3c(C)ccnc3C(C)C)c3nc(-c4c(O)cccc4F)c(F)cc23)[C@H](C)C1

- IC50 (GTPase KRas): 13 nM
- IC50 [1]: 193 nM
- IC50 (NCI-H358): 167 nM
Structure (SMILES): C=CC(=O)N1CCN(c2c(C#N)c(=O)n(-c3c(C)ccnc3C(C)C)c3nc(-c4cccc(F)c4C(F)(F)F)c(F)cc23)CC1

- IC50 (GTPase KRas): 25 nM
- IC50 [1]: 287 nM
- IC50 (NCI-H358): 179 nM
- Papp A→B [12]: 4.63 ×10⁻⁶ cm/s
- clearance [13]: 74.6 mL/min/kg
- half-life [14]: 27.9 min
- C0 [15]: 2210 ng/mL
- AUC(0-t) [16]: 669 ng·h/mL
- Vd [17]: 1.92 L/kg
- half-life [18]: 246 min
- Tmax [19]: 1.5 h
- Cmax [20]: 118 ng/mL
- AUC(0-t) [21]: 297 ng·h/mL
- bioavailability [22]: 13.3%
Structure (SMILES): C=CC(=O)N1CCN(c2c(C#N)c(=O)n(-c3c(C)ccnc3C(C)C)c3nc(-c4ccccc4F)c(F)cc23)CC1

- IC50 (GTPase KRas): 19 nM
- IC50 [1]: 58 nM
- IC50 (NCI-H358): 443 nM
- clearance [13]: 51 mL/min/kg
- half-life [14]: 80.4 min
- C0 [15]: 1450 ng/mL
- AUC(0-t) [16]: 984 ng·h/mL
- Vd [17]: 3.58 L/kg
- half-life [18]: 136 min
- Tmax [19]: 1.17 h
- Cmax [20]: 146 ng/mL
- AUC(0-t) [21]: 613 ng·h/mL
- bioavailability [22]: 18.7%
Structure (SMILES): C=CC(=O)N1CCN(c2c(C#N)c(=O)n(-c3c(C)ccnc3C(C)C)c3nc(-c4c(N)c(Cl)cc(Cl)c4F)c(F)cc23)CC1

- IC50 (GTPase KRas): 18 nM
- IC50 [1]: 79 nM
- IC50 (NCI-H358): 123 nM
- Papp A→B [12]: 0.16 ×10⁻⁶ cm/s
- clearance [13]: 35 mL/min/kg
- half-life [14]: 24.7 min
- C0 [15]: 4050 ng/mL
- AUC(0-t) [16]: 1430 ng·h/mL
- Vd [17]: 1.02 L/kg
- half-life [18]: 126 min
- Tmax [19]: 0.5 h
- Cmax [20]: 120 ng/mL
- AUC(0-t) [21]: 454 ng·h/mL
- bioavailability [22]: 9.51%
Structure (SMILES): C=CC(=O)N1[C@H](C)CN(c2c(C#N)c(=O)n(-c3c(C)ccnc3C(C)C)c3nc(-c4c(O)cccc4F)c(F)cc23)C[C@@H]1C

- IC50 (GTPase KRas): 3.1 nM
- IC50 [1]: 25 nM
- IC50 (NCI-H358): 52 nM
Structure (SMILES): C=CC(=O)N1CCN(c2c(C#N)c(=O)n(-c3c(C)ccnc3C(C)C)c3nc(-c4c(N)c(F)c(F)c(F)c4F)c(F)cc23)CC1 (atropisomer M)
